Measured values taken from US8895313B2, “Ligands for aggregated tau molecules” (Wista Laboratories Ltd., priority 2008, dated 2014).

Experiments:
[1] = biological target: T1, aggregated tau in 3T6 cells expressing htau40 (IPTG-inducible) and truncated tau (Homo sapiens, UniProt P10636); experiment: Tissue culture cell assay: uptake and labelling of aggregated tau; format: cell-based, mouse; conditions: for binding to aggregated tau within cells, fluorescence microscopy: induced cells
T1 construct: express both full-length human tau protein (htau40); truncated tau (295-390, dGA); expressed in transfected cells; host or cells: murine 3T6 fibroblasts; htau40 in pOPRSVI (IPTG-inducible), dGA in pcDNA3.1 (constitutive)
Method: The aggregated tau was prepared in cell lines as described in WO02/055720. In essence, fibroblast cells (3T6) express full-length tau (“T40”) under control of an inducible promotor, and low constitutive levels of the PHF-core tau fragment (12 kD fragment). Then T40 expression is induced, it undergoes aggregation-dependent truncation within the cell, N-terminally at ˜αα295 and C-terminally at ˜αα390, thereby producing higher levels of the 12 kD PHF-core domain fragment.
The tissue culture assay uses 3T6 mouse cells engineered to express both full-length human tau protein (htau40) under the control of an inducible promoter (pOPRSVI), and to express low levels of truncated tau (295-390, dGA) under the control of a constitutive promoter (pcDNA3.1). Expression of large quantities of htau40 is induced by the addition of isopropyl β-D-1-thiogalactopyranoside (IPTG; 10-50 μM), which in turn leads to the production of additional truncated tau by a process in which aggregation and processing of the full-length tau occurs in the presence of dGA tau which acts as template. The aggregation of tau in this assay is depicted in FIG. 1.
Murine 3T6 fibroblast cells were grown to ˜80% confluency in a 10-cm dish, before splitting into 2×24 well plates, and allowed to grow for a further 24 hrs when IPTG was added. After overnight incubation, the medium was removed and the cells were washed with PBS.
A similar experiment was performed with cells seeded on to cover slips in a 24-well plate. After 24 hrs, the cells were incubated with ligand for 20 hrs in the presence or absence of IPTG (100 μM) i.e. induced or uninduced.

[2] = biological target: T2, aggregated tau in brain sections of line 66 mice (full-length human tau, P301S/G335D) (Homo sapiens, UniProt P10636, G652D/P618S); experiment: Ligand staining of paraffin-embedded brain sections; design: species or system mouse
T2 construct: transgenic mice expressing full-length human tau; from tissue; host or cells: fixed brain sections of transgenic line 66 mice (paraffin-embedded or frozen)
T2 sequence (P10636 1-441 isoform P10636-8 P301S/G335D): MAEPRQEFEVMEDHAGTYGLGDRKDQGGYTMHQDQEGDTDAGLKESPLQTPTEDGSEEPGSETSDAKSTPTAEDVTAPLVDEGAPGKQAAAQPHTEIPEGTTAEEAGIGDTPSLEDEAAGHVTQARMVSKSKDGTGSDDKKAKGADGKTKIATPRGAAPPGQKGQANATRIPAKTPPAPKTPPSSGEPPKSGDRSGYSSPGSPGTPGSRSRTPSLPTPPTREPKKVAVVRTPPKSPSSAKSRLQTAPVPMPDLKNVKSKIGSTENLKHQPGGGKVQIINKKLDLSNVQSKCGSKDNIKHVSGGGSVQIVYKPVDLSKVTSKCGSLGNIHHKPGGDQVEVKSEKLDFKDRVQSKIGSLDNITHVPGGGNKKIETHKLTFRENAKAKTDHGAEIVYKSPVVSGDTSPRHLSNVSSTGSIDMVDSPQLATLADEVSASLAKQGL
Description: The binding of ligands to aggregated tau in tissue sections or cells containing such aggregates can also be used to test whether such compounds can (i) enter cells, and (ii) bind to aggregated tau. In addition, it is a suitable means to test fluorescent ligands that cannot be tested in the fluorescent competition binding assay.
Brain tissue sections were used from transgenic mice expressing full-length human tau, that contained a double mutation P301S/G335D (line 66 mouse). Aggregated tau pathology accumulates in neurons in these animals. Fixed tissue was used either after embedding in paraffin or after freezing in the presence of cryoprotectant.
Sections from the brains of mice expressing full-length tau, that contain a double mutation P301S/G335D, associated with frontotemporal […] were cut 5 μm thick. Sections were dewaxed and rehydrated into water. Inherent fluorescence was quenched with sodium permanganate followed by sodium borohydride. Primulin or SK2033-30 was added in 50% ethanol. In a second experiment, SK2033-30 was added in 50% ethanol containing 10% DMSO. Sections were compared with those stained by standard immunohistochemistry using mAb 7/51, an antibody recognising truncated tau repeat domain (Novak et al. (1993); Wischik et al. (1996)).

[3] = Biodistribution assay of 18F-labelled ligand; format: in vivo, mouse; conditions: mice
Method: Biodistribution and excretion studies for ligands were performed in male NMRI mice (body weight app. 30 g; 3 animals per time point). The animals were kept under normal laboratory conditions at a temperature of 22±2° C. and a dark/light rhythm of 12 hours. Food and water were provided ad libitium. During an acclimatisation period of at least 3 days before the beginning of the study, animals were clinically examined to ascertain the absence of abnormal clinical signs. At 2, 5, 30, 60 and 120 min post intravenous injection via the tail vein of ca. 150 kBq in 100 μl of the test compound, urine and faeces were quantitatively collected. At the same time points, animals were anaesthetised with isoflurane, sacrificed by decapitation and the following organs and tissues were removed for the determination of radioactivity using a gamma-counter: spleen, liver, kidney, lung, bone, heart, brain, fat, thyroid, muscle, skin, blood, tail, stomach (without content), testicle, intestine (with content), pancreas, adrenals, skull, and the remaining body. For the analysis, the decay corrected percentage of the injected dose per tissue weight (% ID/g±standard deviation) was calculated.

Oc1ccc(/N=N/c2ccc(-c3nc4ccc(O)cc4s3)cc2)c(C(F)(F)F)c1 [LS-T213, 4-{(E)-[4-(6-Hydroxy-1,3-benzothiazol-2-yl)phenyl]diazenyl}-3-(trifluoromethyl)phenol]
binding to aggregated tau within cells, fluorescence microscopy [1]: selective binding

Cc1ccc2nc(-c3ccc(/C=C/c4ccc(N(C)C)cc4)cc3)sc2c1 [SK2033-30, 2-{4-[2-(4-Dimethylaminophenyl)-vinyl]-phenyl}-6-methylbenzothiazole]
staining pattern in paraffin-embedded line 66 mouse brain section ([2]; ligand added in 50% ethanol containing 10% DMSO): showed a staining pattern similar to that observed with primulin or antibody
uptake/staining in paraffin-embedded line 66 mouse brain section ([2]; ligand added in 50% ethanol, compared with primulin or antibody immunostaining): little evidence for its uptake into cells
uptake and labelling of aggregated tau in induced cells ([1]; IPTG-induced cells): demonstrated
binding to aggregated tau within cells, fluorescence microscopy [1]: selective binding

COc1ccc2nc(-c3ccc(NC(=O)c4ccc([18F])nc4)cc3)sc2c1 [SKT04-137, 6-[^18F]Fluoro-N-[4-(6-methoxy-benzothiazol-2-yl)-phenyl]-nicotinamide]
% ID/g ([3]; Adrenals, 2 min post i.v.): 10.84 % ID/g
% ID/g ([3]; Adrenals, 5 min post i.v.): 9.59 % ID/g
% ID/g ([3]; Adrenals, 30 min post i.v.): 5.62 % ID/g
% ID/g ([3]; Adrenals, 60 min post i.v.): 2.83 % ID/g
% ID/g ([3]; Adrenals, 120 min post i.v.): 1.04 % ID/g
% ID/g ([3]; Blood, 2 min post i.v.): 1.69 % ID/g
% ID/g ([3]; Blood, 5 min post i.v.): 1.12 % ID/g
% ID/g ([3]; Blood, 30 min post i.v.): 0.74 % ID/g
% ID/g ([3]; Blood, 60 min post i.v.): 0.39 % ID/g
% ID/g ([3]; Blood, 120 min post i.v.): 0.16 % ID/g
% ID/g ([3]; Bone, 2 min post i.v.): 1.54 % ID/g
% ID/g ([3]; Bone, 5 min post i.v.): 1.50 % ID/g
% ID/g ([3]; Bone, 30 min post i.v.): 1.20 % ID/g
% ID/g ([3]; Bone, 60 min post i.v.): 1.96 % ID/g
% ID/g ([3]; Bone, 120 min post i.v.): 1.65 % ID/g
% ID/g ([3]; Brain, 2 min post i.v.): 3.99 % ID/g
% ID/g ([3]; Brain, 5 min post i.v.): 3.54 % ID/g
% ID/g ([3]; Brain, 30 min post i.v.): 3.19 % ID/g
% ID/g ([3]; Brain, 60 min post i.v.): 1.43 % ID/g
% ID/g ([3]; Brain, 120 min post i.v.): 0.60 % ID/g
% ID/g ([3]; Fat, 2 min post i.v.): 1.25 % ID/g
% ID/g ([3]; Fat, 5 min post i.v.): 1.57 % ID/g
% ID/g ([3]; Fat, 30 min post i.v.): 7.21 % ID/g
% ID/g ([3]; Fat, 60 min post i.v.): 4.51 % ID/g
% ID/g ([3]; Fat, 120 min post i.v.): 1.76 % ID/g
% ID/g ([3]; Heart, 2 min post i.v.): 6.68 % ID/g
% ID/g ([3]; Heart, 5 min post i.v.): 3.72 % ID/g
% ID/g ([3]; Heart, 30 min post i.v.): 1.62 % ID/g
% ID/g ([3]; Heart, 60 min post i.v.): 0.81 % ID/g
% ID/g ([3]; Heart, 120 min post i.v.): 0.39 % ID/g
% ID/g ([3]; Intestine, 2 min post i.v.): 1.99 % ID/g
% ID/g ([3]; Intestine, 5 min post i.v.): 2.45 % ID/g
% ID/g ([3]; Intestine, 30 min post i.v.): 9.36 % ID/g
% ID/g ([3]; Intestine, 60 min post i.v.): 17.43 % ID/g
% ID/g ([3]; Intestine, 120 min post i.v.): 20.08 % ID/g
% ID/g ([3]; Kidney, 2 min post i.v.): 9.60 % ID/g
% ID/g ([3]; Kidney, 5 min post i.v.): 7.10 % ID/g
% ID/g ([3]; Kidney, 30 min post i.v.): 6.38 % ID/g
% ID/g ([3]; Kidney, 60 min post i.v.): 3.78 % ID/g
% ID/g ([3]; Kidney, 120 min post i.v.): 1.49 % ID/g
% ID/g ([3]; Liver, 2 min post i.v.): 11.52 % ID/g
% ID/g ([3]; Liver, 5 min post i.v.): 13.30 % ID/g
% ID/g ([3]; Liver, 30 min post i.v.): 7.03 % ID/g
% ID/g ([3]; Liver, 60 min post i.v.): 4.26 % ID/g
% ID/g ([3]; Liver, 120 min post i.v.): 2.41 % ID/g
% ID/g ([3]; Lung, 2 min post i.v.): 6.91 % ID/g
% ID/g ([3]; Lung, 5 min post i.v.): 4.55 % ID/g
% ID/g ([3]; Lung, 30 min post i.v.): 1.83 % ID/g
% ID/g ([3]; Lung, 60 min post i.v.): 0.97 % ID/g
% ID/g ([3]; Lung, 120 min post i.v.): 0.40 % ID/g
% ID/g ([3]; Muscle, 2 min post i.v.): 1.98 % ID/g
% ID/g ([3]; Muscle, 5 min post i.v.): 1.80 % ID/g
% ID/g ([3]; Muscle, 30 min post i.v.): 1.11 % ID/g
% ID/g ([3]; Muscle, 60 min post i.v.): 0.63 % ID/g
% ID/g ([3]; Muscle, 120 min post i.v.): 0.20 % ID/g
% ID/g ([3]; Pancreas, 2 min post i.v.): 4.34 % ID/g
% ID/g ([3]; Pancreas, 5 min post i.v.): 3.17 % ID/g
% ID/g ([3]; Pancreas, 30 min post i.v.): 1.74 % ID/g
% ID/g ([3]; Pancreas, 60 min post i.v.): 1.11 % ID/g
% ID/g ([3]; Pancreas, 120 min post i.v.): 0.33 % ID/g
% ID/g ([3]; Skin, 2 min post i.v.): 1.01 % ID/g
% ID/g ([3]; Skin, 5 min post i.v.): 1.28 % ID/g
% ID/g ([3]; Skin, 30 min post i.v.): 1.87 % ID/g
% ID/g ([3]; Skin, 60 min post i.v.): 1.11 % ID/g
% ID/g ([3]; Skin, 120 min post i.v.): 0.45 % ID/g
% ID/g ([3]; Skull, 2 min post i.v.): 1.93 % ID/g
% ID/g ([3]; Skull, 5 min post i.v.): 1.28 % ID/g
% ID/g ([3]; Skull, 30 min post i.v.): 0.95 % ID/g
% ID/g ([3]; Skull, 60 min post i.v.): 1.44 % ID/g
% ID/g ([3]; Skull, 120 min post i.v.): 1.04 % ID/g
% ID/g ([3]; Spleen, 2 min post i.v.): 2.95 % ID/g
% ID/g ([3]; Spleen, 5 min post i.v.): 2.44 % ID/g
% ID/g ([3]; Spleen, 30 min post i.v.): 1.19 % ID/g
% ID/g ([3]; Spleen, 60 min post i.v.): 0.60 % ID/g
% ID/g ([3]; Spleen, 120 min post i.v.): 0.30 % ID/g
% ID/g ([3]; Stomach, 2 min post i.v.): 3.67 % ID/g
% ID/g ([3]; Stomach, 5 min post i.v.): 2.28 % ID/g
% ID/g ([3]; Stomach, 30 min post i.v.): 2.48 % ID/g
% ID/g ([3]; Stomach, 60 min post i.v.): 2.17 % ID/g
% ID/g ([3]; Stomach, 120 min post i.v.): 0.98 % ID/g
% ID/g ([3]; Tail, 2 min post i.v.): 15.89 % ID/g
% ID/g ([3]; Tail, 5 min post i.v.): 7.40 % ID/g
% ID/g ([3]; Tail, 30 min post i.v.): 3.74 % ID/g
% ID/g ([3]; Tail, 60 min post i.v.): 7.70 % ID/g
% ID/g ([3]; Tail, 120 min post i.v.): 4.93 % ID/g
% ID/g ([3]; Testes, 2 min post i.v.): 0.97 % ID/g
% ID/g ([3]; Testes, 5 min post i.v.): 1.10 % ID/g
% ID/g ([3]; Testes, 30 min post i.v.): 1.68 % ID/g
% ID/g ([3]; Testes, 60 min post i.v.): 1.18 % ID/g
% ID/g ([3]; Testes, 120 min post i.v.): 0.61 % ID/g
% ID/g ([3]; Thyroid, 2 min post i.v.): 3.97 % ID/g
% ID/g ([3]; Thyroid, 5 min post i.v.): 2.59 % ID/g
% ID/g ([3]; Thyroid, 30 min post i.v.): 1.06 % ID/g
% ID/g ([3]; Thyroid, 60 min post i.v.): 0.59 % ID/g
% ID/g ([3]; Thyroid, 120 min post i.v.): 0.37 % ID/g
brain washout ([3]; i.v., 60 min vs 2 min): 64%
brain uptake ([3]; i.v., after 2 min): 3.99 % injected dose/g tissue
brain level ([3]; i.v., after 60 min): 1.43 % injected dose/g tissue
